Twelve compounds from ChEMBL document CHEMBL4689842, “EUbOPEN Chemogenomics Library wave 1” (2021) can be followed below.

Format in all cases: toxicity, cell-based
One data set has as its system HEK-293T. The data set is described as follows: Incucyte cell viability with HEK293T. As to conditions: human, 10 µM, compound concentration 10 uM.
A further data set deals with U2OS. Description: Incucyte cell viability with U2OS. As to conditions: human, 10 µM, compound concentration 10 uM.
Another data set deals with Fibroblast. Description: Incucyte cell viability with human fibroblast. As to conditions: 10 µM, compound concentration 10 uM.
Where [1] appears, read: 0 h, replicate number 1, timepoint 0 hours.
Setting [2] is: 6 h, replicate number 2, timepoint 6 hours.
Where [3] appears, read: 12 h, replicate number 2, timepoint 12 hours.
The mark [4] stands for this setting: 18 h, replicate number 2, timepoint 18 hours.
Setting [5] is: 24 h, replicate number 1, timepoint 24 hours.
Setting [6] is: 24 h, replicate number 2, timepoint 24 hours.
Where [7] appears, read: 6 h, replicate number 1, timepoint 6 hours.
Where [8] appears, read: 12 h, replicate number 1, timepoint 12 hours.
[9] abbreviates: 18 h, replicate number 1, timepoint 18 hours.
[10] abbreviates: 0 h, replicate number 2, timepoint 0 hours.
Note: filed as whole numbers so only -1 and 0 and 1 occur.

Consider `O=C(NCC(=O)N1CCCC1)Nc1ccc2cnccc2c1`, for which the “Growth Rate” value came out at 0 in the data set on HEK-293T (setting [1]); 0 in the data set on HEK-293T (setting [2]); 0 in the data set on HEK-293T (setting [3]); 1 with HEK-293T (setting [4]); 1 with HEK-293T (setting [5]); 0 with HEK-293T (setting [6]). In addition, the “Growth Rate” value in the data set on U2OS (setting [1]) is reported as 0; with U2OS (setting [7]), 1; in the data set with U2OS (setting [2]), 0; with U2OS (setting [8]), 1; with U2OS (setting [3]), 0; with U2OS (setting [9]) it was 1. Also, the “Growth Rate” value in the data set with U2OS (setting [5]) stood at 1; in the data set on Fibroblast (setting [10]) it was 0; with Fibroblast (setting [7]), 0; with Fibroblast (setting [8]), 0; in the data set with Fibroblast (setting [3]) it was 1; in the data set on Fibroblast (setting [9]) it was 0. The “Growth Rate” value is reported as 1 in the data set with Fibroblast (setting [4]), 0 in the data set with Fibroblast (setting [5]) and 1 with Fibroblast (setting [6]).
On to `O=C(NCc1ncc(C(F)(F)F)cc1Cl)c1ccc2c(c1)C1(CCS(=O)(=O)CC1)[C@@H](C1CC1)N2S(=O)(=O)c1ccc(F)cc1` [BAY-786], for which the “Growth Rate” value in the data set on HEK-293T (setting [1]) came out at 0; with HEK-293T (setting [7]), 1; with HEK-293T (setting [8]), 0; in the data set on HEK-293T (setting [3]) it was 1; in the data set on HEK-293T (setting [9]), 0; in the data set with HEK-293T (setting [4]), 1. The “Growth Rate” value is 0 with HEK-293T (setting [5]); 1 with HEK-293T (setting [6]); 0 with U2OS (setting [1]); 0 with U2OS (setting [2]); 1 in the data set on U2OS (setting [8]); 1 in the data set on U2OS (setting [9]). The “Growth Rate” value with U2OS (setting [4]) is 0; in the data set with U2OS (setting [5]), 0; in the data set on Fibroblast (setting [1]) it was 0; in the data set on Fibroblast (setting [10]), 1; in the data set on Fibroblast (setting [7]), 1; in the data set on Fibroblast (setting [8]), 1. Besides, the “Growth Rate” value in the data set on Fibroblast (setting [9]) and in the data set on Fibroblast (setting [5]) was 1 in each case.
Take `Cc1cnc(-c2cc(Cl)ccc2F)cc1-n1c(=O)n(CC(N)=O)c2ccccc21` [Al11]: the “Growth Rate” value in the data set on HEK-293T (setting [1]) was found to be 0; with HEK-293T (setting [10]), 1; in the data set with HEK-293T (setting [2]), 0; with HEK-293T (setting [3]) it was 1; with HEK-293T (setting [9]) it was 1; with HEK-293T (setting [5]) it was 1. The “Growth Rate” value in the data set on U2OS (setting [1]) was 0; with U2OS (setting [7]), 1; in the data set with U2OS (setting [2]) it was 0; in the data set on U2OS (setting [8]), 1; in the data set on U2OS (setting [3]), 0; in the data set with U2OS (setting [9]), 1. Moreover, the “Growth Rate” value in the data set with U2OS (setting [5]) stood at 1; with Fibroblast (setting [1]) it was 0; in the data set on Fibroblast (setting [7]), 1; with Fibroblast (setting [8]), 1; with Fibroblast (setting [9]), 0; in the data set with Fibroblast (setting [5]) it was 1. The “Growth Rate” value with Fibroblast (setting [6]) came to 0.
Take `Cl.Clc1ccc(CCCOCCCN2CCCCC2)cc1` [PITOLISANT HYDROCHLORIDE]: the “Growth Rate” value in the data set with HEK-293T (setting [10]), in the data set with HEK-293T (setting [7]), with HEK-293T (setting [8]), with HEK-293T (setting [9]), in the data set with HEK-293T (setting [5]) and in the data set on U2OS (setting [1]) was 0 in each case. For the same compound, the “Growth Rate” value in the data set with U2OS (setting [8]) amounted to 1; with U2OS (setting [9]), 1; in the data set with U2OS (setting [5]), 1; in the data set with Fibroblast (setting [1]), 0; with Fibroblast (setting [9]) it was 1; in the data set with Fibroblast (setting [5]), 1.
As for `COc1cc(-c2cn([C@H]3CCc4ccccc4N(CC(F)(F)F)C3=O)nn2)ccc1-n1ccc(C)n1`, the “Growth Rate” value was 1 in the data set on HEK-293T (setting [10]); 0 in the data set with HEK-293T (setting [7]); 0 in the data set with HEK-293T (setting [8]); 0 in the data set with HEK-293T (setting [9]); 0 in the data set with HEK-293T (setting [5]); 0 in the data set on U2OS (setting [1]). Moreover, the “Growth Rate” value came out at 0 with U2OS (setting [7]); 0 with U2OS (setting [8]); 1 with U2OS (setting [3]); 0 in the data set on U2OS (setting [9]); 0 with U2OS (setting [5]); 0 in the data set with Fibroblast (setting [10]). Further, the “Growth Rate” value in the data set with Fibroblast (setting [7]) worked out at 0; with Fibroblast (setting [8]), 0; in the data set on Fibroblast (setting [3]), 1; in the data set on Fibroblast (setting [9]) it was 1; in the data set with Fibroblast (setting [4]), 0; in the data set with Fibroblast (setting [5]), 0.
Take `CSc1cccnc1N1CCN(Cc2nc3ccccc3[nH]2)CC1` [A-769]: the “Growth Rate” value in the data set on HEK-293T (setting [1]) is recorded as 1; in the data set with HEK-293T (setting [10]), 0; in the data set on HEK-293T (setting [7]), 0; in the data set on HEK-293T (setting [8]) it was 0; in the data set on HEK-293T (setting [9]), 0; in the data set on HEK-293T (setting [5]) it was 0. Moreover, the “Growth Rate” value in the data set on U2OS (setting [7]) is recorded as 0; with U2OS (setting [8]), 0; in the data set on U2OS (setting [9]), 0; in the data set with U2OS (setting [4]), 1; with U2OS (setting [5]) it was 1; in the data set with Fibroblast (setting [1]) it was 0. In addition, the “Growth Rate” value turned out to be 1 with Fibroblast (setting [10]); 0 in the data set on Fibroblast (setting [7]); 1 in the data set with Fibroblast (setting [2]); 0 in the data set on Fibroblast (setting [8]); 1 in the data set with Fibroblast (setting [3]); 0 in the data set on Fibroblast (setting [9]). In the data set with Fibroblast (setting [5]), the “Growth Rate” value amounted to 0.
On to `Cc1cc(-n2nc(Cc3cc(F)cc(C(F)(F)F)c3)nc2C)ccc1C(N)=O` [TP-024], for which the “Growth Rate” value in the data set with HEK-293T (setting [1]) worked out at 1; in the data set with HEK-293T (setting [10]), 0; in the data set with HEK-293T (setting [7]) it was 0; with HEK-293T (setting [8]) it was 0; with HEK-293T (setting [9]), 0; in the data set with HEK-293T (setting [5]), 0. Further, the “Growth Rate” value amounted to 0 in the data set on U2OS (setting [7]); 1 in the data set on U2OS (setting [2]); 0 in the data set on U2OS (setting [8]); 1 in the data set on U2OS (setting [3]); 0 in the data set with U2OS (setting [9]); 1 in the data set with U2OS (setting [4]). The “Growth Rate” value with U2OS (setting [5]) stood at 0; in the data set on U2OS (setting [6]) it was 1; with Fibroblast (setting [1]) it was 0; in the data set on Fibroblast (setting [10]), 1; in the data set on Fibroblast (setting [7]), 1; in the data set with Fibroblast (setting [2]), 0. Besides, the “Growth Rate” value with Fibroblast (setting [8]) turned out to be 1; with Fibroblast (setting [3]), 0; in the data set with Fibroblast (setting [9]), 1; in the data set with Fibroblast (setting [4]), 0; in the data set on Fibroblast (setting [5]) it was 1; in the data set on Fibroblast (setting [6]), 0.
On to `COc1ccc(S(=O)(=O)c2cc(OC)ccc2S(=O)(=O)c2ccc([C@H](C)NS(C)(=O)=O)cc2)cc1`, for which the “Growth Rate” value was 1 in the data set on HEK-293T (setting [1]); 0 in the data set with HEK-293T (setting [10]); 0 in the data set with HEK-293T (setting [7]); 1 with HEK-293T (setting [2]); 1 with HEK-293T (setting [8]); 1 in the data set on HEK-293T (setting [9]). Besides, the “Growth Rate” value was 1 with HEK-293T (setting [5]); 0 with U2OS (setting [1]); 0 with U2OS (setting [2]); 0 in the data set with U2OS (setting [8]); 1 with U2OS (setting [3]); 1 with U2OS (setting [9]). Moreover, the “Growth Rate” value in the data set on U2OS (setting [4]) is reported as 0; with U2OS (setting [5]), 1; with U2OS (setting [6]) it was 0; with Fibroblast (setting [1]) it was 0; in the data set on Fibroblast (setting [10]), 1; with Fibroblast (setting [2]), 0. Further, the “Growth Rate” value in the data set on Fibroblast (setting [3]), in the data set with Fibroblast (setting [4]) and in the data set with Fibroblast (setting [5]) was 1 in each case.
Take `COc1cc2ncnc(Nc3ccc(F)c(Cl)c3)c2cc1OCCCN1CCOCC1` [GEFITINIB]: the “Growth Rate” value in the data set on HEK-293T (setting [1]), in the data set on HEK-293T (setting [7]), in the data set on HEK-293T (setting [8]), with HEK-293T (setting [9]), with HEK-293T (setting [5]) and in the data set with U2OS (setting [1]) was 0 in each case. Further, the “Growth Rate” value in the data set with U2OS (setting [7]) is reported as 0; with U2OS (setting [8]), 0; with U2OS (setting [3]), 1; with U2OS (setting [9]) it was 0; in the data set on U2OS (setting [4]) it was 1; in the data set on U2OS (setting [5]), 0. The “Growth Rate” value in the data set with U2OS (setting [6]) came to 1; in the data set on Fibroblast (setting [1]), 0; with Fibroblast (setting [2]), 1; in the data set with Fibroblast (setting [8]), 0; in the data set on Fibroblast (setting [9]), 0; in the data set with Fibroblast (setting [5]) it was 0.
In the case of `Cl.Cl.Cl.c1ccc(N2CCN(Cc3nc4ccccc4[nH]3)CC2)nc1`, the “Growth Rate” value is listed as 1 in the data set on HEK-293T (setting [1]); 0 in the data set with HEK-293T (setting [10]); 1 in the data set with HEK-293T (setting [7]); 1 with HEK-293T (setting [8]); 0 in the data set with HEK-293T (setting [3]); 1 in the data set on HEK-293T (setting [9]). For the same compound, the “Growth Rate” value in the data set on HEK-293T (setting [5]) is reported as 0; with U2OS (setting [1]) it was 0; with U2OS (setting [2]), 0; with U2OS (setting [8]), 1; in the data set with U2OS (setting [9]), 1; in the data set on U2OS (setting [5]), 1. Also, the “Growth Rate” value with Fibroblast (setting [1]) was determined as 0; with Fibroblast (setting [3]), 1; in the data set on Fibroblast (setting [4]) it was 1; in the data set on Fibroblast (setting [5]), 1.
With `CC(C)N(CCCNC(=O)Nc1ccc(C(C)(C)C)cc1)C[C@H]1O[C@@H](n2cc(Br)c3c(N)ncnc32)[C@H](O)[C@@H]1O`, the “Growth Rate” value is 0 with HEK-293T (setting [7]); 0 in the data set on HEK-293T (setting [3]); 1 with HEK-293T (setting [4]); 1 in the data set with HEK-293T (setting [5]); 0 in the data set on U2OS (setting [1]); 1 with U2OS (setting [7]). Besides, the “Growth Rate” value is listed as 1 with U2OS (setting [8]); 1 with U2OS (setting [9]); 1 with U2OS (setting [5]); 0 in the data set with Fibroblast (setting [10]); 1 in the data set with Fibroblast (setting [8]); 1 with Fibroblast (setting [9]). Also, the “Growth Rate” value with Fibroblast (setting [5]) is reported as 1.
Turning to `S=C=Nc1cccc(NC(=S)NCCCCNC(=S)Nc2cccc(N=C=S)c2)c1`, the “Growth Rate” value with HEK-293T (setting [10]) came to 0; in the data set on HEK-293T (setting [7]), 0; in the data set with HEK-293T (setting [2]) it was 1; with HEK-293T (setting [8]), 0; in the data set on HEK-293T (setting [9]), 0; with HEK-293T (setting [5]), 0. For the same compound, the “Growth Rate” value in the data set on U2OS (setting [1]) is given as 0; in the data set with U2OS (setting [2]) it was 0; in the data set with U2OS (setting [8]) it was 1; in the data set with U2OS (setting [3]), 0; in the data set on U2OS (setting [9]) it was 0; in the data set on U2OS (setting [5]), 0. Moreover, the “Growth Rate” value in the data set with Fibroblast (setting [1]), with Fibroblast (setting [7]), with Fibroblast (setting [8]), in the data set with Fibroblast (setting [9]) and in the data set with Fibroblast (setting [5]) was 0 in each case.
